# Where a SMILES comes first, the peptide text is derived from it. Bridges are numbered along the chain shown (N, C = ends). [ ]: non-standard residue; d: D form. Aib = CC(C)(N)C(=O)O
# How the values were obtained:
# Type in all cases: cell-based
# [1] = molecular target: T1, GIP receptor (Homo sapiens, UniProt P48546); assay: cAMP synthesis functional assay (firefly luciferase reporter in HEK293 cells), GIP receptor; conditions: Table 1; relative to the native hormone of the indicated receptor
# T1 construct: expressed in transfected cells; host or cells: HEK293
# T1 sequence (P48546 22-466): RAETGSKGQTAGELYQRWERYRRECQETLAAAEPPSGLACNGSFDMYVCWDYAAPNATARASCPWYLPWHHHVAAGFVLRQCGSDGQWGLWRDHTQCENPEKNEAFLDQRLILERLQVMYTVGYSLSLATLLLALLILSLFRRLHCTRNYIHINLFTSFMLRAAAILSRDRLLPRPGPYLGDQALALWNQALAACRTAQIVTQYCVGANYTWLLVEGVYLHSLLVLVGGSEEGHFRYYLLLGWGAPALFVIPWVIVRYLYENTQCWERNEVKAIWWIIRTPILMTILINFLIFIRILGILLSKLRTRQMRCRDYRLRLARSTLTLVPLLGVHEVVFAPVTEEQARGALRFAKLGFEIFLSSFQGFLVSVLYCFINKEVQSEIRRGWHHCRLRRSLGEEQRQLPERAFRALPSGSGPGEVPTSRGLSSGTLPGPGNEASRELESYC
# [2] = molecular target: T2, glucagon receptor (Homo sapiens, UniProt P47871); assay: cAMP synthesis functional assay (firefly luciferase reporter in HEK293 cells), glucagon receptor; conditions: Table 1; relative to the native hormone of the indicated receptor
# T2 construct: expressed in transfected cells; host or cells: HEK293
# T2 sequence (P47871 26-477): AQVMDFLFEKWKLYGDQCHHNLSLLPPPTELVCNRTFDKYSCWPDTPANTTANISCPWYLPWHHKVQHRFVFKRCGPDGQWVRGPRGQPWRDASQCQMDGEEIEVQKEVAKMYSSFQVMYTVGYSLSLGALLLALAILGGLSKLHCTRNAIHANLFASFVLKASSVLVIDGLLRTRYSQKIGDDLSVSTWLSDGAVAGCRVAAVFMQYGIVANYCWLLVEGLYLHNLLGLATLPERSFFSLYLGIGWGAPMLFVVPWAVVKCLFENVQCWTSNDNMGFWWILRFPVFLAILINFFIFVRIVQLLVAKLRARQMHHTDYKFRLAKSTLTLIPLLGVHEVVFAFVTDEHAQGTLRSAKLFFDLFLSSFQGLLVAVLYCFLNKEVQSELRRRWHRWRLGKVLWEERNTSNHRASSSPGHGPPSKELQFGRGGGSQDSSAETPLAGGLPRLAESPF
# [3] = molecular target: T3, GLP-1 receptor (Homo sapiens, UniProt P43220); assay: cAMP synthesis functional assay (firefly luciferase reporter in HEK293 cells), GLP-1 receptor; conditions: Table 1; for GLP-1 Receptor relative activity: relative to the native hormone of the indicated receptor
# T3 construct: expressed in transfected cells; host or cells: HEK293
# T3 sequence (P43220 24-463, species assumed): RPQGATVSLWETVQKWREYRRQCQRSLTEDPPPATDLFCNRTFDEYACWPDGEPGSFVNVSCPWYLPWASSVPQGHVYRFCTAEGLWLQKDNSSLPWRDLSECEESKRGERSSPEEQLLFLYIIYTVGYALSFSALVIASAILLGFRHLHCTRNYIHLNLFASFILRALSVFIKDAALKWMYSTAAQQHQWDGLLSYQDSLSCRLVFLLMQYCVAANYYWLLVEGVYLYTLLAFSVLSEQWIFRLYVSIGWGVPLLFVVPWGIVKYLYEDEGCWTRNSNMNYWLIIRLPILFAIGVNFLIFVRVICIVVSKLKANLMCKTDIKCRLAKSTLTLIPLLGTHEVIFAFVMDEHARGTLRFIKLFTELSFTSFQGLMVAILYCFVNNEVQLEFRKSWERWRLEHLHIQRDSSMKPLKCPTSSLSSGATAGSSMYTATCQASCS
# [4] = test system: glucagon receptor, GLP-1 receptor or GIP receptor; assay: Agonist profile across receptors assigned from the cAMP reporter assay data; conditions: assigned from the in vitro EC50 data of Tables 1-4
Compound,GIP Receptor relative activity [1] [%],Glucagon Receptor relative activity [2] [%],"EC50 ([3]; GLP-1 Receptor EC50, nM) [nM]",GLP-1 Receptor relative activity [3] [%],receptor activity profile (glucagon / GLP-1 / GIP agonism) [4]
CC[C@H](C)[C@H](NC(=O)[C@H](CC(C)C)NC(=O)[C@H](Cc1c[nH]c2ccccc12)NC(=O)[C@H](CC(N)=O)NC(=O)[C@@H](NC(=O)[C@H](Cc1ccccc1)NC(=O)[C@H](CCC(=O)O)NC(=O)[C@@H]1CCCCNC(=O)CC[C@H](NC(=O)[C@H](CC(=O)O)NC(=O)[C@H](CC(C)C)NC(=O)[C@H](Cc2ccc(O)cc2)NC(=O)[C@H](Cc2ccc(O)cc2)NC(=O)[C@H](CO)NC(=O)[C@H](Cc2ccc(O)cc2)NC(=O)[C@H](CC(=O)O)NC(=O)[C@H](CO)NC(=O)[C@@H](NC(=O)[C@H](Cc2ccccc2)NC(=O)[C@@H](NC(=O)CNC(=O)[C@H](CCC(N)=O)NC(=O)C(C)(C)NC(=O)[C@@H](N)Cc2ccc(O)cc2)[C@@H](C)O)[C@@H](C)O)C(=O)N[C@@H](CCC(N)=O)C(=O)N[C@@H](C)C(=O)N[C@@H](C(C)C)C(=O)N1)C(C)C)C(=O)N[C@@H](C)C(=O)NCC(=O)NCC(=O)N1CCC[C@H]1C(=O)N[C@@H](CO)C(=O)N[C@@H](CO)C(=O)NCC(=O)N[C@@H](C)C(=O)N1CCC[C@H]1C(=O)N1CCC[C@H]1C(=O)N1CCC[C@H]1C(=O)N[C@@H](CO)C(N)=O [mt-162] (H-Y[Aib]QGTFTSDYSYYLDEQAVKEFVNWLIAGGPSSGAPPPS-NH2; lactam 16-20; N-terminus assumed),25.74,0.97,0.011,109.09,exemplary GLP-1/GIP co-agonist peptides
CC[C@H](C)[C@H](NC(=O)[C@H](CO)NC(=O)[C@H](Cc1ccc(O)cc1)NC(=O)[C@H](CC(=O)O)NC(=O)[C@H](CO)NC(=O)[C@@H](NC(=O)[C@H](Cc1ccccc1)NC(=O)[C@@H](NC(=O)CNC(=O)[C@H](CCC(N)=O)NC(=O)[C@@H](C)NC(=O)[C@@H](N)Cc1ccc(O)cc1)[C@@H](C)O)[C@@H](C)O)C(=O)N[C@@H](Cc1ccc(O)cc1)C(=O)N[C@@H](CC(C)C)C(=O)N[C@@H](CC(=O)O)C(=O)N[C@H]1CCC(=O)NCCCC[C@@H](C(=O)N[C@@H](CCC(=O)O)C(=O)N[C@@H](Cc2ccccc2)C(=O)N[C@H](C(=O)N[C@@H](CC(N)=O)C(=O)N[C@@H](Cc2c[nH]c3ccccc23)C(=O)N[C@@H](CC(C)C)C(=O)N[C@@H](CC(C)C)C(=O)N[C@@H](C)C(=O)NCC(=O)NCC(=O)N2CCC[C@H]2C(=O)N[C@@H](CO)C(=O)N[C@@H](CO)C(=O)NCC(=O)N[C@@H](C)C(=O)N2CCC[C@H]2C(=O)N2CCC[C@H]2C(=O)N2CCC[C@H]2C(=O)N[C@@H](CO)C(=O)N[C@@H](CS)C(N)=O)C(C)C)NC(=O)[C@H](C)NC(=O)[C@H](C)NC(=O)[C@H](CCC(N)=O)NC1=O [mt-166] (H-Y[dA]QGTFTSDYSIYLDEQAAKEFVNWLLAGGPSSGAPPPSC-NH2; lactam 16-20; N-terminus assumed),5.94,9.83,,26.87,exemplary GLP-1/GIP/glucagon triagonist peptides

# Source: patent US9062124B2, “GIP-based mixed agonists for treatment of metabolic disorders and obesity” (priority 2008, dated 2015)
